Test results as given in ChEMBL document CHEMBL3045621, “Synthesis and Structure-activity Relationships of Herbicidal Thiophene Sulfonylurea Compounds” (J Pestic Sci, 1997).

Legend:
[1] = test system: Schoenoplectiella juncoides; test: Herbicidal activity against Schoenoplectiella juncoides assessed as dose required to cause sufficient herbicidal activity after 5 to 7 days; format: functional
[2] = test system: Oryza sativa; test: Toxicity in two leaf stage of Oryza sativa var. Nihonbare (rice) assessed as dose required to selectivity to Oryza sativa; format: organism-based; settings: in vivo
[3] = test system: Sagittaria pygmaea; test: Herbicidal activity against Sagittaria pygmaea assessed as dose required to cause sufficient herbicidal activity after 5 to 7 days; format: functional
[4] = test system: Echinochloa oryzicola; test: Herbicidal activity against Echinochloa oryzicola assessed as dose required to cause sufficient herbicidal activity; format: functional

Structure (SMILES)	MED [1]	MED [2]	MED [3]	MED [4]
COc1nc(NC(=O)NS(=O)(=O)c2csnc2COCCF)nc(OC)n1	1.25 g/acre	> 0.313 g/acre	0.313 g/acre	5 g/acre
COc1cc(OC)nc(NC(=O)NS(=O)(=O)c2sccc2C[N+](=O)[O-])n1	–	0.625 g/acre	–	–
COc1nc(NC(=O)NS(=O)(=O)c2ccoc2COCCF)nc(OC)n1	0.625 g/acre	0.313 g/acre	0.156 g/acre	1.25 g/acre
COc1nc(NC(=O)NS(=O)(=O)c2c(COCCF)cnn2C)nc(OC)n1	0.313 g/acre	1.25 g/acre	–	0.625 g/acre
COc1nc(NC(=O)NS(=O)(=O)c2scnc2COCCF)nc(OC)n1	2.5 g/acre	2.5 g/acre	2.5 g/acre	2.5 g/acre
COc1nc(NC(=O)NS(=O)(=O)c2snc(C)c2COCCF)nc(OC)n1	1.25 g/acre	2.5 g/acre	1.25 g/acre	1.25 g/acre
COc1nc(NC(=O)NS(=O)(=O)c2ccccc2COCCF)nc(OC)n1	40 g/acre	2.5 g/acre	10 g/acre	40 g/acre
COc1nc(NC(=O)NS(=O)(=O)c2ccc3ccccc3c2COCCF)nc(OC)n1	<2.5 g/acre	< 2.5 g/acre	<2.5 g/acre	<2.5 g/acre
COc1nc(NC(=O)NS(=O)(=O)c2sc3ccccc3c2COCCF)nc(OC)n1	<2.5 g/acre	< 2.5 g/acre	<2.5 g/acre	<2.5 g/acre
COc1nc(NC(=O)NS(=O)(=O)Cc2sccc2COCCF)nc(OC)n1	20 g/acre	< 2.5 g/acre	20 g/acre	80 g/acre
COc1cc(OC)nc(NC(=O)NS(=O)(=O)c2sccc2COCC(F)F)n1	0.0781 g/acre	0.312 g/acre	0.0391 g/acre	1.25 g/acre
COc1cc(OC)nc(NC(=O)NS(=O)(=O)c2sccc2COCCF)n1	0.0391 g/acre	0.0781 g/acre	0.0391 g/acre	0.313 g/acre
COc1cc(OC)nc(NC(=O)NS(=O)(=O)c2sccc2COCC(F)(F)Cl)n1	2.5 g/acre	1.25 g/acre	–	5 g/acre
COc1cc(OC)nc(NC(=O)NS(=O)(=O)c2ccsc2COCCF)n1	0.0781 g/acre	0.313 g/acre	–	–
COc1cc(OC)nc(NC(=O)NS(=O)(=O)c2cscc2COCCF)n1	0.156 g/acre	0.625 g/acre	0.0781 g/acre	–
COc1cc(C)nc(NC(=O)NS(=O)(=O)c2sccc2COCCF)n1	0.0391 g/acre	0.156 g/acre	0.0391 g/acre	0.0195 g/acre
Cc1cc(C)nc(NC(=O)NS(=O)(=O)c2sccc2COCCF)n1	–	0.156 g/acre	–	–
COc1cc(Cl)nc(NC(=O)NS(=O)(=O)c2sccc2COCCF)n1	0.156 g/acre	0.625 g/acre	0.313 g/acre	0.156 g/acre
COc1cc(OCC(F)(F)F)nc(NC(=O)NS(=O)(=O)c2sccc2COCCF)n1	10 g/acre	5 g/acre	2.5 g/acre	20 g/acre
O=C(Nc1nc(OC(F)F)cc(OC(F)F)n1)NS(=O)(=O)c1sccc1COCCF	5 g/acre	5 g/acre	5 g/acre	5 g/acre
COc1nc(NC(=O)NS(=O)(=O)c2sccc2COCCF)nc(OC)n1	–	0.313 g/acre	–	5 g/acre
COc1nc(C)nc(NC(=O)NS(=O)(=O)c2sccc2COCCF)n1	0.313 g/acre	0.0781 g/acre	0.625 g/acre	0.313 g/acre
C#CCOCc1ccsc1S(=O)(=O)NC(=O)Nc1nc(OC)cc(OC)n1	0.0781 g/acre	0.156 g/acre	0.0391 g/acre	0.625 g/acre
COCCOCc1ccsc1S(=O)(=O)NC(=O)Nc1nc(OC)cc(OC)n1	0.313 g/acre	0.156 g/acre	0.313 g/acre	–
COc1cc(OC)nc(NC(=O)NS(=O)(=O)c2sccc2COCCCl)n1	0.156 g/acre	0.625 g/acre	0.156 g/acre	–
COc1cc(OC)nc(NC(=O)NS(=O)(=O)c2sccc2COCCCCl)n1	–	0.313 g/acre	–	1.25 g/acre
COc1cc(OC)nc(NC(=O)NS(=O)(=O)c2sccc2COCC(Cl)(Cl)Cl)n1	2.5 g/acre	1.25 g/acre	2.5 g/acre	5 g/acre

Structure (SMILES)	MED [1]	MED [2]	MED [3]	MED [4]
COc1cc(OC)nc(NC(=O)NS(=O)(=O)c2sccc2COCC(F)(F)F)n1	0.156 g/acre	1.25 g/acre	0.156 g/acre	2.5 g/acre
COc1cc(OC)nc(NC(=O)NS(=O)(=O)c2sccc2COCC(F)(F)C(F)(F)F)n1	1.25 g/acre	0.625 g/acre	2.5 g/acre	5 g/acre
COc1cc(OC)nc(NC(=O)NS(=O)(=O)c2sccc2COCC(F)(F)C(F)(F)C(F)(F)F)n1	20 g/acre	0.625 g/acre	10 g/acre	10 g/acre
COc1cc(OC)nc(NC(=O)NS(=O)(=O)c2sccc2COC(C)C(F)(F)F)n1 (stereo not given)	2.5 g/acre	1.25 g/acre	–	5 g/acre
COc1cc(OC)nc(NC(=O)NS(=O)(=O)c2sccc2COC(C)(C)C(F)(F)F)n1	1.25 g/acre	2.5 g/acre	2.5 g/acre	20 g/acre
COc1cc(OC)nc(NC(=O)NS(=O)(=O)c2sccc2COC(CF)CF)n1	–	0.625 g/acre	0.313 g/acre	1.25 g/acre
COc1cc(OC)nc(NC(=O)NS(=O)(=O)c2sccc2COCCCF)n1	0.313 g/acre	0.625 g/acre	0.156 g/acre	0.313 g/acre
COc1cc(OC)nc(NC(=O)NS(=O)(=O)c2sccc2COCC2CCCO2)n1 (stereo not given)	5 g/acre	0.625 g/acre	10 g/acre	5 g/acre
COc1cc(OC)nc(NC(=O)NS(=O)(=O)c2sccc2CN(C)C)n1	10 g/acre	–	10 g/acre	20 g/acre
CCN(C)Cc1ccsc1S(=O)(=O)NC(=O)Nc1nc(OC)cc(OC)n1	10 g/acre	20 g/acre	5 g/acre	20 g/acre
CCN(CC)Cc1ccsc1S(=O)(=O)NC(=O)Nc1nc(OC)cc(OC)n1	–	0.625 g/acre	–	5 g/acre
COC(=O)NCc1ccsc1S(=O)(=O)NC(=O)Nc1nc(OC)cc(OC)n1	1.25 g/acre	2.5 g/acre	0.313 g/acre	20 g/acre
CNC(=O)NCc1ccsc1S(=O)(=O)NC(=O)Nc1nc(OC)cc(OC)n1	20 g/acre	2.5 g/acre	10 g/acre	10 g/acre
COc1cc(OC)nc(NC(=O)NS(=O)(=O)c2sccc2CNC(=O)CCl)n1	10 g/acre	5 g/acre	5 g/acre	10 g/acre
COc1cc(OC)nc(NC(=O)NS(=O)(=O)c2sccc2Cn2cccn2)n1	1.25 g/acre	0.625 g/acre	–	5 g/acre
COc1cc(OC)nc(NC(=O)NS(=O)(=O)c2sccc2Cn2cc(C(F)(F)F)ccc2=O)n1	40 g/acre	40 g/acre	40 g/acre	40 g/acre
CCOCc1ccsc1S(=O)(=O)NC(=O)Nc1nc(OC)cc(OC)n1	0.0391 g/acre	0.156 g/acre	0.0391 g/acre	0.313 g/acre
C=CCOCc1ccsc1S(=O)(=O)NC(=O)Nc1nc(OC)cc(OC)n1	0.156 g/acre	0.313 g/acre	0.156 g/acre	0.625 g/acre
COCc1ccsc1S(=O)(=O)NC(=O)Nc1nc(OC)cc(OC)n1	0.0391 g/acre	0.0781 g/acre	0.0195 g/acre	–
COc1cc(OC)nc(NC(=O)NS(=O)(=O)c2sccc2CC#N)n1	0.156 g/acre	0.0391 g/acre	–	0.625 g/acre
COc1cc(OC)nc(NC(=O)NS(=O)(=O)c2sccc2CSC)n1	–	0.156 g/acre	0.0195 g/acre	0.313 g/acre
COC(=O)Cc1ccsc1S(=O)(=O)NC(=O)Nc1nc(OC)cc(OC)n1	1.25 g/acre	0.156 g/acre	0.313 g/acre	1.25 g/acre
CNC(=O)Cc1ccsc1S(=O)(=O)NC(=O)Nc1nc(OC)cc(OC)n1	0.625 g/acre	1.25 g/acre	0.313 g/acre	–
COc1cc(OC)nc(NC(=O)NS(=O)(=O)c2sccc2COCCO)n1	0.625 g/acre	0.313 g/acre	–	0.625 g/acre
CCOC(=O)COCc1ccsc1S(=O)(=O)NC(=O)Nc1nc(OC)cc(OC)n1	–	1.25 g/acre	–	–
COc1cc(OC)nc(NC(=O)NS(=O)(=O)c2sccc2COc2ccccc2)n1	1.25 g/acre	0.625 g/acre	0.313 g/acre	2.5 g/acre
COc1cc(OC)nc(NC(=O)NS(=O)(=O)c2sccc2COc2cccc(C(F)(F)F)c2)n1	20 g/acre	0.625 g/acre	20 g/acre	5 g/acre
